Measurements taken from patent US10023841B2, “Methods and compositions for treating breast cancer with dendritic cell vaccines” (Baylor Research Institute, priority 2014, dated 2018).
The star is where a group is joined. Cbz = O=C(OCc1ccccc1)*; CH2F = FC*

Legend:
caspase-1 = molecular target: T1, caspase-1 (Homo sapiens, UniProt P29466); assay: MDA-MB231/mDC co-culture with caspase-1 inhibitor: proIL-1β and mature IL-1β staining; format: cell-based
T1 construct: MDA-MB231 cells and mDCs were co-cultured in chamber well; endogenous in cells; host or cells: human blood mDCs co-cultured with MDA-MB231 cells
T1 sequence (P29466 120-297 limits assumed): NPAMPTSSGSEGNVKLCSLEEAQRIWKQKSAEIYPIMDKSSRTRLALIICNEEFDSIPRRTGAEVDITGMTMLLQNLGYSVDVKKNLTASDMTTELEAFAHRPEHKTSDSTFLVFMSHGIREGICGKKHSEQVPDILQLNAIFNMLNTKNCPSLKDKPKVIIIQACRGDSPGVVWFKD
T1 sequence (P29466 317-404 limits assumed): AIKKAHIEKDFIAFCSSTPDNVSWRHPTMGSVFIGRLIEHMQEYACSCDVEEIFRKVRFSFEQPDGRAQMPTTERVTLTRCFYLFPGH
Procedure: In most cases, caspase-1 is needed for proteolytic cleavage and secretion of mature IL-1β. It was tested whether TGF-β-dependent IL-1β production also required the activation of caspase-1. MDA-MB231 cells and mDCs were co-cultured in chamber well in presence of 1 uM of caspase-1 inhibitor or DMSO as vehicle control. 18 hours later, cells were fixed and stained with specific antibody against pro-peptide of IL-1β (FIG. 7A), or mature IL-1β (FIG. 7B), both accompanied with HLA-DR staining. […] Four areas were counted for the percentage of proIL-1β^+ cells within HLA-DR^+ cells for both DMSO or caspase-1 inhibitor treated wells. Almost 95% of mDCs show accumulation of proIL-1β intracellularly, while only around 50% of mDCs express proIL-1β (FIG. 7A right panel). Using a similar experimental system, mature IL-1β production in presence or absence of caspase-1 inhibitor was also measured.

[1] = tested on: HS-578t or MDA-MB231 cells; assay: TSLP induction in breast cancer cell lines by cytokines (real-time PCR, Luminex); format: cell-based, human; conditions: for TSLP mRNA level by quantitative real-time PCR: HS-578t and MDA-MB231 cells, 10 ng/ml, as early as 2 hours
Procedure: […] For tumor cells and mDCs coculture experiment, 100 k tumor cells were seeded in 24 well plate to grow overnight, then media was refreshed and 100 k mDCs were added to coculture for another 24-72 h. For the transwell experiment, 24-well-plate with inserts were used (Corning). 200K tumor cells were seeded in the plate to grow at least overnight, then 200 k mDCs were added into inserts. After 48 h of co-culture, supernantants were harvested to determine IL-1β level by ELISA (Duoset, R&D System).
Samples were treated and lysed with Buffer RLT, and then stored at −80° C. until RNA extraction. Total RNA was isolated and purified from each sample by using RNeasy kit and RNase-free DNase (Qiagen) according to the manufacturer's instructions. cDNA was generated from total RNA with iScript™ cDNA Synthesis Kit. The resulting cDNA was then used for quantitative gene expression analysis on a Sequence Detection System 7,500 (Applied Biosystems). The primers used were as follows: human (h)TSLP, 5′-[…]-3′ (SEQ ID NO:41) and 5′-[…]-3 (SEQ ID NO:42), and human (h)IL-1β, 5′-[…]-3′ (SEQ ID NO:43) and 5′-[…]-3′ (SEQ ID NO:44), human (h) GAPDH, 5′-[…]-3′ (SEQ ID NO:45) and 5′-[…]-3′ (SEQ ID NO:46), human (h) ABL1, 5′-[…]-3′ (SEQ ID NO:47) and 5′ […]-3′ (SEQ ID NO:48), human (h) PGK1, 5′-[…]-3′ (SEQ ID NO:49) and 5′-[…]-3′ (SEQ ID NO:50), human (h) PES1, 5′-[…]-3′ (SEQ ID NO:51) and 5′-A […]-3′ (SEQ ID NO:52). Equal amounts of cDNA were used with the iTaq SYBR Green Supermix with ROX (Bio-Rad) and primer mix according to the real-time PCR protocols supplied by the manufacturer. Amplification efficiencies were validated against the housekeeping gene, GAPDH, PES1, and ABL1. […] The relative quantification of target gene expression was done by the comparative cycle threshold (CT) method. […]
Different pro-inflammatory cytokines have the potential to induce TSLP from keratinocytes, both transcriptionally and translationally. […] Cells were harvested and TSLP mRNA levels were measured by quantitative real-time PCR (FIG. 4A). […] TSLP levels in the culture supernatants were determined by Luminex. […]

| Molecule | percentage of proIL-1β+ cells within HLA-DR+ cells (caspase-1; 1 uM caspase-1 inhibitor, MDA-MB231 cells and mDCs co-cultured 18 hours) | mature IL-1β staining (caspase-1; caspase-1 inhibitor, MDA-MB231 cells and mDCs co-culture) | TSLP mRNA level by quantitative real-time PCR [1] | TSLP levels in the culture supernatants (Luminex) ([1]; MDA-MB231 cells, different doses, 48 hours) |
| --- | --- | --- | --- | --- |
| Cbz-WEHD-CH2F [caspase-1 inhibitor] | ~95% | less mature IL-1β was detected |  |  |
| IL-1β: cytokine obtained from R&D |  |  | induce significant TSLP transcription | induce TSLP production in a dose-dependent manner |
| IL-1α: cytokine obtained from R&D (protein, UniProt P01583 113-271, looked up) Interleukin-1 alpha: SAPFSFLSNVKYNFMRIIKYEFILNDALNQSIIRANDQYLTAAALHNLDEAVKFDMGAYKSSKDDAKITVILRISKTQLYVTAQDEDQPVLLKEMPEIPKTITGSETNLLFFWETHGTKNYFTSVAHPNLFIATKQDYWVCLAGGPPSITDFQILENQA |  |  | induce significant TSLP transcription |  |
